Measured values from US12686689B2, “HPK1 inhibitor, preparation method therefor and use thereof” (WIGEN BIOMEDICINE TECHNOLOGY (SHANGHAI) CO., LTD., priority 2020, dated 2026).

Tests used:
hERG potassium channel = biological target: T1, hERG potassium channel (Homo sapiens, UniProt Q12809); assay: Inhibitory effect against hERG channel activity (manual patch clamp, HEK293 cells stably expressing hERG); format: cell-based; conditions: HEK293 cell line stably expressing hERG
T1 construct: expressed in transfected cells; host or cells: HEK293
T1 sequence (Q12809 whole entry): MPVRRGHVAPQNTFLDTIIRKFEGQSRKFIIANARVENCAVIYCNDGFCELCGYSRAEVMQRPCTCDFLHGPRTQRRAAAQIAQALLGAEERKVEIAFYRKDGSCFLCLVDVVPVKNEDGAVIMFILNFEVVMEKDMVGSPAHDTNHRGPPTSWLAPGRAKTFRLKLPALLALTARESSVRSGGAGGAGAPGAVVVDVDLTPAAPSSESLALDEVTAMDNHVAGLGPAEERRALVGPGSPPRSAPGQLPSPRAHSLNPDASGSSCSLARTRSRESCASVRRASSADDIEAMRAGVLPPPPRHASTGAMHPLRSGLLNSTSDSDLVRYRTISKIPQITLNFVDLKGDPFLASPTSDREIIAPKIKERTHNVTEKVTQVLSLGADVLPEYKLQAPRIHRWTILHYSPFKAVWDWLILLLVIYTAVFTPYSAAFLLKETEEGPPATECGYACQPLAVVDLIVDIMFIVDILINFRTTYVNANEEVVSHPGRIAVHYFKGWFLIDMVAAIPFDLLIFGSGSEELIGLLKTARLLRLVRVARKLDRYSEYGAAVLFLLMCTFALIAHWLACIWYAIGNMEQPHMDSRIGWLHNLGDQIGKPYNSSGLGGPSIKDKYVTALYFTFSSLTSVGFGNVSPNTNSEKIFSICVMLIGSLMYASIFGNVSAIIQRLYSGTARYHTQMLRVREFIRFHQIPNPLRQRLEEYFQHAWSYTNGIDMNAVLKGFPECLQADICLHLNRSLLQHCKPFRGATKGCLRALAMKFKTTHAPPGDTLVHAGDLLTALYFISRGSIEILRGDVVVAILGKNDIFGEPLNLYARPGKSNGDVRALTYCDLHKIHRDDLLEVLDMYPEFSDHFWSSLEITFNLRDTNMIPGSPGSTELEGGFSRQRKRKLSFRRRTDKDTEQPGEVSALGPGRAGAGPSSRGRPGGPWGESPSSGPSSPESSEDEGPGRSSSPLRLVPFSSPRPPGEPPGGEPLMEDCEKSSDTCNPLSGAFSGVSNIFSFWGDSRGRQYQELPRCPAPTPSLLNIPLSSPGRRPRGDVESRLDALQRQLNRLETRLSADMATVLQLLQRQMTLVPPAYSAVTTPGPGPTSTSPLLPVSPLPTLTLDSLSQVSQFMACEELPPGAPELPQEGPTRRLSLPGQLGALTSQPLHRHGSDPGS
Procedure: Example 131: Assay of Inhibitory Effect of Compound Against hERG Channel Activity
The HEK293 cell line stably expressed by the hERG potassium channel was adopted for detection using manual patch clamp. Firstly, the HEK293 cell line stably expressed by the hERG potassium channel was separated and laid on a cover glass before the patch clamp detection test, and the test detection was carried out after culture for 18 h. Then a capillary glass tube was drawn into a recording electrode, and the recording electrode was contacted onto the cells under an inverted microscope to form a whole-cell recording mode. After necessary compensation and recording of the membrane capacitance and series resistance, current recording was performed according to the set current stimulation protocol. After the hERG current stabilized, administration was started and the current detected in compound-free extracellular fluid for each cell served as its own control group, and multiple cells were repeatedly tested independently. The current acted for each drug concentration and the current of the blank control were standardized, then the inhibition rate corresponding to each drug concentration was calculated, and finally the half-inhibition concentration IC50 value of each compound was calculated.

HPK1 = HPK1 (Homo sapiens, UniProt Q92918); assay: Inhibitory effect against enzyme activity of HPK1 (lantha Screen, PKC substrate); format: biochemical; conditions: class symbols defined as IC50 ranges, read-out: Inhibition rate (%)
Chain of HPK1 (Q92918 whole entry): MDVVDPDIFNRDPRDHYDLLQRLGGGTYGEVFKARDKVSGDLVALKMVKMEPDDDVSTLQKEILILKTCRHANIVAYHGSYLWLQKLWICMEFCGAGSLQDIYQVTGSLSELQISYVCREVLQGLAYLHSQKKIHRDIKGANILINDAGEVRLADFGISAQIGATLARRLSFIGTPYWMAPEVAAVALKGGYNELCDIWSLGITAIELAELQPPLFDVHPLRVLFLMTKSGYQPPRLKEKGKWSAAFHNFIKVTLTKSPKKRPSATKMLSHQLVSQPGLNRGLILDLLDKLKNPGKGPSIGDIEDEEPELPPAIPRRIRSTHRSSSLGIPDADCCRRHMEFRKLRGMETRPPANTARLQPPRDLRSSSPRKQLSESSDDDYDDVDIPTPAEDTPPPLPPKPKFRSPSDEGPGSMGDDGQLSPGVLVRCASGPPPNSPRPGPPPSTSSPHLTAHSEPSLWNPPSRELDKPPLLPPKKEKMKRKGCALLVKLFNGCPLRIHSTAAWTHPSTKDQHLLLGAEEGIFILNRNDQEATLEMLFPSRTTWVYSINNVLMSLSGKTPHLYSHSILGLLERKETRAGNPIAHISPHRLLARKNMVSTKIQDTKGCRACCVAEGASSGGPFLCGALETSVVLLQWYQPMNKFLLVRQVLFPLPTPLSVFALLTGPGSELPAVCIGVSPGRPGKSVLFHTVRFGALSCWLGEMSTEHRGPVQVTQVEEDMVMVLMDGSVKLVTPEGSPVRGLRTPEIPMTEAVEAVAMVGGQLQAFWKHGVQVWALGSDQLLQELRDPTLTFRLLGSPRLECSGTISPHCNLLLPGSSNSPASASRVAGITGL
Procedure: Example 130: Assay of Inhibitory Effect of Compound Against Enzyme Activity of HPK1
The inhibitory effect of the compound against the enzyme activity of HPK1 was determined by using a lantha Screen method with PKC as a substrate. The process comprises the following specific steps: the HPK1 protein was incubated with the serially-diluted compound at 28° C. for 10 min followed by addition of fluoroescein-labeled PKC substrate and ATP to react for 90 min. After termination of the reaction, a Terbium-labeled antibody against phosphorylated PKC was added and incubated for 60 min. The energy transfer of Teribium and fluoroscein was monitored by detecting luminescence at 520 nm and 450 nm to quantify PKC as the level of phosphorylation of […]. Inhibition % and IC50 of the compound were calculated compared to the control group.

CNCc1cc(F)c(-c2cc3c(-c4ccc5c(c4)OCC4CN(C)CCN54)n[nH]c3cc2C#N)c(F)c1 (centres unmarked) [Compound 18]
IC50 (hERG potassium channel): 11.8 µM
IC50 (HPK1): ≤ 0.01 µM

CN1CCN2c3ccc(-c4n[nH]c5cnc(-c6cccc(F)c6F)cc45)cc3OCC2C1 (centres unmarked) [Compound 67]
IC50 (hERG potassium channel): 51.2 µM
IC50 (HPK1): 0.01 to 0.1 µM

CN1CCN2c3ccc(-c4n[nH]c5cc(C#N)c(-c6c(F)cc(C(=O)N7CC(N(C)C)C7)cc6F)cc45)cc3OCC2C1 (centres unmarked) [Compound 35]
IC50 (hERG potassium channel): 31.8 µM
IC50 (HPK1): ≤ 0.01 µM

COc1ccc(F)c(F)c1-c1cc2c(-c3ccc4c(c3)OCC3CN(C)CCN43)n[nH]c2cc1C#N (centres unmarked) [Compound 16]
IC50 (hERG potassium channel): 23.6 µM
IC50 (HPK1): ≤ 0.01 µM
